# Data from US8975398B2, “NAMPT inhibitors” (AbbVie Inc., priority 2012, dated 2015).
# Columns and labels:
# [1] = biological target: NAMPT (human, recombinant, C-terminally His-tagged) (Homo sapiens, UniProt P43490); assay: Time-Resolved Fluorescence Resonance Energy Transfer (TR-FRET) Binding Assay of NAMPT; conditions: 6.8 nM NAMPT, 200 nM probe, equilibrated 3 hours, absence of substrates
# Outline: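 Probe displacement measured by TR-FRET (Ex 337 nm; 520/495 nm ratio) after 3 h room-temperature equilibration of compound with 6.8 nM His-tagged human NAMPT, 1 nM Tb-anti-His antibody and 200 nM Oregon Green 488 nicotinamide-site probe, pH 7.5 HEPES buffer, 2% DMSO. Control-normalized data fit four-parameter logistic for IC50.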
# NAMPT = NAMPT (Homo sapiens, UniProt P43490); assay: Time-Resolved Fluorescence Resonance Energy Transfer (TR-FRET) Binding Assay of NAMPT with PRPP; conditions: 2 nM NAMPT, 2 nM probe, 200 uM PRPP and 2.5 mM ATP, equilibrated 16 hours
# Chain of NAMPT (P43490 whole entry): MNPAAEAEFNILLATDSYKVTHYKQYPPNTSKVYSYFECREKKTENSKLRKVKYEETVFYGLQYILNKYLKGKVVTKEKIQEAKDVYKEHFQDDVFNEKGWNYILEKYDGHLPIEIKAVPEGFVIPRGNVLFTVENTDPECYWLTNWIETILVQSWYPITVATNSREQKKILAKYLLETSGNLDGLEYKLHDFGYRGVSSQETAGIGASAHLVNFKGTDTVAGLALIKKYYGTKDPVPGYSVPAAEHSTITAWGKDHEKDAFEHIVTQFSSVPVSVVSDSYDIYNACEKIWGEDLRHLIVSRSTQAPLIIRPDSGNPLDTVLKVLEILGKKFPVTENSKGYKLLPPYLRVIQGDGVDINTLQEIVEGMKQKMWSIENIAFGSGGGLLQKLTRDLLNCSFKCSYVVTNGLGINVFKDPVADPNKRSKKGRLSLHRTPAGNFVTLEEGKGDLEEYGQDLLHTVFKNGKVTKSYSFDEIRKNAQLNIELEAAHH
# Outline: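 Binding measured by TR-FRET after a 16-hour equilibration meant to permit enzymatic compound modification. Substrates present at 200 uM PRPP and 2.5 mM ATP, with 2 nM enzyme, 2 nM probe, 1 nM Tb-anti-His antibody and 2% DMSO final.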
# Chain of NAMPT (human, recombinant, C-terminally His-tagged) (P43490 whole entry): as above
SMILES,IC50 [1],IC50 (NAMPT)
"O=C(Nc1ccc(C2CCN(C(=O)C3CCOCC3)CC2)cc1)C1CN(c2ccnnc2)C1 [Example 146, 1-(pyridazin-4-yl)-N-{4-[1-(tetrahydro-2H-pyran-4-ylcarbonyl)piperidin-4-yl]phenyl}azetidine-3-carboxamide]",65.9 nM,109 nM
"CC(C)C(=O)N1CCC(c2ccc(NC(=O)C3CN(c4cccnn4)C3)cc2)CC1 [Example 147, N-{4-[1-(2-methylpropanoyl)piperidin-4-yl]phenyl}-1-(pyridazin-3-yl)azetidine-3-carboxamide]",34.6 nM,1.47 nM
"CC(C)Cn1cc(-c2ccc(NC(=O)C3CN(c4ccnnc4)C3)cc2)cn1 [Example 148, N-{4-[1-(2-methylpropyl)-1H-pyrazol-4-yl]phenyl}-1-(pyridazin-4-yl)azetidine-3-carboxamide]",42.9 nM,20.1 nM
"Cc1ncccc1N1CC(C(=O)Nc2ccc(C3CCN(C(=O)c4cc(Cl)cc(Cl)c4)CC3)cc2)C1 [Example 154, N-{4-[1-(3,5-dichlorobenzoyl)piperidin-4-yl]phenyl}-1-(2-methylpyridin-3-yl)azetidine-3-carboxamide]",524 nM,16.1 nM
"Cc1ncccc1N1CC(C(=O)Nc2ccc(C3CCN(C(=O)c4ccc(C(F)(F)F)cc4)CC3)cc2)C1 [Example 157, 1-(2-methylpyridin-3-yl)-N-(4-{1-[4-(trifluoromethyl)benzoyl]piperidin-4-yl}phenyl)azetidine-3-carboxamide]",1070 nM,192 nM
"CCCCC(=O)N1CCC(c2ccc(NC(=O)C3CN(c4cccnc4C)C3)cc2)CC1 [Example 159, 1-(2-methylpyridin-3-yl)-N-[4-(1-pentanoylpiperidin-4-yl)phenyl]azetidine-3-carboxamide]",137 nM,61.2 nM
"CCC(C)CC(=O)N1CCC(c2ccc(NC(=O)C3CN(c4cccnc4C)C3)cc2)CC1 (stereo not drawn) [Example 160, N-{4-[1-(3-methylpentanoyl)piperidin-4-yl]phenyl}-1-(2-methylpyridin-3-yl)azetidine-3-carboxamide]",74.5 nM,70.8 nM
"Cc1ncccc1N1CC(C(=O)Nc2ccc(C3CCN(C(=O)CC4C[C@@H]5CC[C@H]4C5)CC3)cc2)C1 (stereo partly drawn) [Example 161, N-(4-{1-[(1S,4R)-bicyclo[2.2.1]hept-2-ylacetyl]piperidin-4-yl}phenyl)-1-(2-methylpyridin-3-yl)azetidine-3-carboxamide]",128 nM,59.7 nM
"Cc1ncccc1N1CC(C(=O)Nc2ccc(C3CCN(C(=O)CC4CCCC4)CC3)cc2)C1 [Example 162, N-{4-[1-(cyclopentylacetyl)piperidin-4-yl]phenyl}-1-(2-methylpyridin-3-yl)azetidine-3-carboxamide]",144 nM,71 nM
"Cc1ncccc1N1CC(C(=O)Nc2ccc(C3CCN(C(=O)C4CC4C)CC3)cc2)C1 (stereo not drawn) [Example 163, N-(4-{1-[(2-methylcyclopropyl)carbonyl]piperidin-4-yl}phenyl)-1-(2-methylpyridin-3-yl)azetidine-3-carboxamide]",166 nM,83.1 nM
"Cc1ncccc1N1CC(C(=O)Nc2ccc(C3CCN(C(=O)CN4CCOCC4)CC3)cc2)C1 [Example 164, 1-(2-methylpyridin-3-yl)-N-{4-[1-(morpholin-4-ylacetyl)piperidin-4-yl]phenyl}azetidine-3-carboxamide]",987 nM,124 nM
"Cc1ncccc1N1CC(C(=O)Nc2ccc(C3CCN(C(=O)CN4CCCC4)CC3)cc2)C1 [Example 166, 1-(2-methylpyridin-3-yl)-N-{4-[1-(pyrrolidin-1-ylacetyl)piperidin-4-yl]phenyl}azetidine-3-carboxamide]",2270 nM,206 nM
"Cc1ncccc1N1CC(C(=O)Nc2ccc(C3CCN(C(=O)[C@H]4CCC(=O)N4)CC3)cc2)C1 [Example 167, 1-(2-methylpyridin-3-yl)-N-{4-[1-(5-oxo-D-prolyl)piperidin-4-yl]phenyl}azetidine-3-carboxamide]",3740 nM,204 nM
"Cc1ncccc1N1CC(C(=O)Nc2ccc(C3CCN(C(=O)CCN(C)C)CC3)cc2)C1 [Example 168, N-{4-[1-(N,N-dimethyl-beta-alanyl)piperidin-4-yl]phenyl}-1-(2-methylpyridin-3-yl)azetidine-3-carboxamide]",2940 nM,171 nM

# More lines, now with the values ahead:
IC50 [1],IC50 (NAMPT),SMILES
20.7 nM,54.3 nM,"Cc1ncccc1N1CC(C(=O)Nc2ccc(C3CCN(C(=O)c4ccccc4)CC3)cc2)C1 [Example 149, N-[4-(1-benzoylpiperidin-4-yl)phenyl]-1-(2-methylpyridin-3-yl)azetidine-3-carboxamide]"
6.53 nM,43.8 nM,"Cc1ncccc1N1CC(C(=O)Nc2ccc(C3CCN(C(=O)c4ccccc4F)CC3)cc2)C1 [Example 150, N-{4-[1-(2-fluorobenzoyl)piperidin-4-yl]phenyl}-1-(2-methylpyridin-3-yl)azetidine-3-carboxamide]"
17.4 nM,43.6 nM,"Cc1ncccc1N1CC(C(=O)Nc2ccc(C3CCN(C(=O)c4ccccc4Cl)CC3)cc2)C1 [Example 151, N-{4-[1-(2-chlorobenzoyl)piperidin-4-yl]phenyl}-1-(2-methylpyridin-3-yl)azetidine-3-carboxamide]"
87.6 nM,101 nM,"Cc1ncccc1N1CC(C(=O)Nc2ccc(C3CCN(C(=O)c4cccc(F)c4)CC3)cc2)C1 [Example 152, N-{4-[1-(3-fluorobenzoyl)piperidin-4-yl]phenyl}-1-(2-methylpyridin-3-yl)azetidine-3-carboxamide]"
266 nM,122 nM,"Cc1ncccc1N1CC(C(=O)Nc2ccc(C3CCN(C(=O)c4cccc(Cl)c4)CC3)cc2)C1 [Example 153, N-{4-[1-(3-chlorobenzoyl)piperidin-4-yl]phenyl}-1-(2-methylpyridin-3-yl)azetidine-3-carboxamide]"
294 nM,44 nM,"Cc1ncccc1N1CC(C(=O)Nc2ccc(C3CCN(C(=O)c4ccc(F)cc4)CC3)cc2)C1 [Example 155, N-{4-[1-(4-fluorobenzoyl)piperidin-4-yl]phenyl}-1-(2-methylpyridin-3-yl)azetidine-3-carboxamide]"
396 nM,84.3 nM,"Cc1ncccc1N1CC(C(=O)Nc2ccc(C3CCN(C(=O)c4ccc(Cl)cc4)CC3)cc2)C1 [Example 156, N-{4-[1-(4-chlorobenzoyl)piperidin-4-yl]phenyl}-1-(2-methylpyridin-3-yl)azetidine-3-carboxamide]"
2900 nM,224 nM,"Cc1ncccc1N1CC(C(=O)Nc2ccc(C3CCN(C(=O)c4cccnn4)CC3)cc2)C1 [Example 158, 1-(2-methylpyridin-3-yl)-N-{4-[1-(pyridazin-3-ylcarbonyl)piperidin-4-yl]phenyl}azetidine-3-carboxamide]"
35.2 nM,68.3 nM,"Cc1ncccc1N1CC(C(=O)Nc2ccc(C3CCN(C(=O)c4ccoc4)CC3)cc2)C1 [Example 165, N-{4-[1-(furan-3-ylcarbonyl)piperidin-4-yl]phenyl}-1-(2-methylpyridin-3-yl)azetidine-3-carboxamide]"
33.7 nM,67.9 nM,"Cc1ncccc1N1CC(C(=O)Nc2ccc(C3CCN(C(=O)c4ccsc4)CC3)cc2)C1 [Example 169, 1-(2-methylpyridin-3-yl)-N-{4-[1-(thiophen-3-ylcarbonyl)piperidin-4-yl]phenyl}azetidine-3-carboxamide]"
